Reference: patent US20230114728A1 (Venatorx Pharmaceuticals, Inc., priority 2019, published 2023)
Converted amounts (≈) assume the structure as drawn.

Experiments:
[1] = target: T1, E. coli K12 PBP3 (Escherichia coli, UniProt P0AD68); assay: biochemical; assay type: binding
T1 construct: made in house
Summary of the method: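 Fluorescence polarization (ex 490/em 520 nm) competition of inhibitors against Bocillin-FL at 0.1 μM, read up to 60 min. Final PBP levels: E. coli PBP3 1.5 μM; A. baumannii PBP2 2.5 μM, PBP3 0.2 μM in Tris pH 8.0/NaCl/glycerol/Tween 20; N. gonorrhoeae PBP2 […] in Hepes pH 8.0/NaCl/glycerol. EC50 = concentration halving PBP-bound Bocillin-FL.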

[2] = target: T2, P. aeruginosa PBP3 (Pseudomonas aeruginosa, UniProt G3XD46); assay: Bocillin-FL fluorescence polarization competition binding assay, P. aeruginosa PBP3; conditions: fluorescence polarization competition binding assay using Bocillin-FL
T2 construct: made in house
T2 sequence (G3XD46 whole entry): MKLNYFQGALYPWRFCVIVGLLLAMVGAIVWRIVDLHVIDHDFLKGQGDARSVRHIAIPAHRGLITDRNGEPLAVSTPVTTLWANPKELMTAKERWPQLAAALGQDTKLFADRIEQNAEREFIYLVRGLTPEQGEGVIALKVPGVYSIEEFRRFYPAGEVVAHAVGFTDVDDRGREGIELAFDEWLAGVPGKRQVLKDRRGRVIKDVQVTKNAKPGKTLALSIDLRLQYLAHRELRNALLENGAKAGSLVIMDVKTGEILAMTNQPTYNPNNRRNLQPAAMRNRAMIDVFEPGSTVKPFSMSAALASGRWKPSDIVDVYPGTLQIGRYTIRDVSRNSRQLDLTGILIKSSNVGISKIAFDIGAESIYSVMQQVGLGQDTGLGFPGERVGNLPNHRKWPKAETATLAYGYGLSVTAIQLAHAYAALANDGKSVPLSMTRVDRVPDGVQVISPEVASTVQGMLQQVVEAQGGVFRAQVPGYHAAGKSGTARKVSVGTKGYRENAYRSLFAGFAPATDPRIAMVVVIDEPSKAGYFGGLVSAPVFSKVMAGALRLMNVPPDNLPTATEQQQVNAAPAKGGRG
Summary of the method: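 Binding of boronic acid inhibitors to purified Pseudomonas aeruginosa (PA01) PBP3 was measured by fluorescence polarization competition with Bocillin-FL, a fluorescent penicillin V. Reactions of 80 μl contained 0.75 μM PBP3 and 0.1 μM Bocillin-FL in 50 mM Hepes (pH 8.0), 300 mM NaCl and 5% (v/v) glycerol, in black 384-well plates. FP (Excitation 490 nm, Emission 520 nm) was read for up to 60 minutes. EC50 is the concentration that halves PBP-bound Bocillin-FL.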

[3] = test system: N. gonorrhoeae ATCC 49226; assay: Liquid broth MIC in Fastidious broth; assay type: cell-based; conditions: Neisseria gonorrhoeae, ATCC49226; N. gonorrhoeae strain ATCC 49226; Fastidious broth; read-out: Minimum Inhibitory Concentration, N. gonorrhoeae ATCC 49226
Summary of the method: (§1)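 Colonies were swabbed from chocolate agar after 24 h growth and standardised by optical density at 600 nm. Compounds were serially diluted twofold in Fastidious broth, and bacteria added to give 5×10^5 CFU/mL. After about 24 h at 36 °C in 5% CO2, the lowest concentration allowing under 10% growth was taken as MIC.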

[4] = test system: N. gonorrhoeae FA1090; assay: Liquid broth MIC in Fastidious broth; assay type: cell-based; conditions: Neisseria gonorrhoeae; N. gonorrhoeae strain FA1090; Fastidious broth; read-out: Minimum Inhibitory Concentration, N. gonorrhoeae FA1090
Summary of the method: as §1

[5] = test system: N. gonorrhoeae H041; assay: Liquid broth MIC in Fastidious broth; assay type: cell-based; conditions: Neisseria gonorrhoeae, H041, read-out: Minimum Inhibitory Concentration, N. gonorrhoeae H041
Summary of the method: (§2)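 MIC = lowest concentration giving <10% growth relative to untreated wells, scored by eye after ~24 h at 36 °C, 5% CO2. Strains carry mosaic PBP2; inoculum 5×10^5 CFU/mL in Fastidious broth with 2-fold serial compound dilutions.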

[6] = test system: N. gonorrhoeae WHO G; assay: Liquid broth MIC in Fastidious broth; assay type: cell-based; conditions: Neisseria gonorrhoeae; N. gonorrhoeae strain WHO G; Fastidious broth; read-out: Minimum Inhibitory Concentration, N. gonorrhoeae WHO G
Summary of the method: as §1

[7] = test system: N. gonorrhoeae WHO K; assay: Liquid broth MIC in Fastidious broth; assay type: cell-based; conditions: Neisseria gonorrhoeae, read-out: Minimum Inhibitory Concentration, N. gonorrhoeae WHO K
Summary of the method: as §2

[8] = test system: N. gonorrhoeae WHO L; assay: Liquid broth MIC in Fastidious broth; assay type: cell-based; conditions: Neisseria gonorrhoeae; N. gonorrhoeae strain WHO L; Fastidious broth; read-out: Minimum Inhibitory Concentration, N. gonorrhoeae WHO L
Summary of the method: as §1

[9] = test system: N. gonorrhoeae WHO Q; assay: Liquid broth MIC in Fastidious broth; assay type: cell-based; conditions: Neisseria gonorrhoeae, read-out: Minimum Inhibitory Concentration, N. gonorrhoeae WHO Q
Summary of the method: as §2

[10] = test system: N. gonorrhoeae WHO Z; assay: Liquid broth MIC in Fastidious broth; assay type: cell-based; conditions: Neisseria gonorrhoeae, read-out: Minimum Inhibitory Concentration, N. gonorrhoeae WHO Z
Summary of the method: as §2

T1 sequence (P0AD68 1-577): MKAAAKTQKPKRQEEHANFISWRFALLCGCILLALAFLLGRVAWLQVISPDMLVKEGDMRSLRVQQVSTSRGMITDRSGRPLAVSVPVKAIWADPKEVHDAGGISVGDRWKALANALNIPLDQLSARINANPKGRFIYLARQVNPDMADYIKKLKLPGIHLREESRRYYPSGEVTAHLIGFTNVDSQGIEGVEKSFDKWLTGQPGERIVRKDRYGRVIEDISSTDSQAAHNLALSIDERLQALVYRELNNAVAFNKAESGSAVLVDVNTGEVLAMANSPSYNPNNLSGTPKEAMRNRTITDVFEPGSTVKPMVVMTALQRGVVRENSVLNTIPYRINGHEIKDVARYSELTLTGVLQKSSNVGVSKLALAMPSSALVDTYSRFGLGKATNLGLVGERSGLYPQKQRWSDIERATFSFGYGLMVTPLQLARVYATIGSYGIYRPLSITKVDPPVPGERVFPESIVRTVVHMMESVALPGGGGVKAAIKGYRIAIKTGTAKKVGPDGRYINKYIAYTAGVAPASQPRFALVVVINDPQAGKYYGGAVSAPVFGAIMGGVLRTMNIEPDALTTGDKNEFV

SMILES | EC50 [1] | P. aeruginosa PBP3 Potency [2] | MIC [3] | MIC [4] | MIC [5] | MIC [6] | MIC [7] | MIC [8] | MIC [9] | MIC [10]
NCCN1CCN(C(=O)N[C@@H](C(=O)N[C@H]2Cc3ccc(F)c(C(=O)O)c3OB2O)c2cc(F)c(O)c(O)c2Cl)C(=O)C1=O (single isomer, unassigned) [Example 179] | < 30 µM | D (D represents a potency <10 μM) | > 64 µg/mL | 16 to 32 µg/mL (≈ 25.6 to 51.1 µM) | > 64 µg/mL | 16 to 32 µg/mL (≈ 25.6 to 51.1 µM) | > 64 µg/mL | > 64 µg/mL | > 64 µg/mL | > 64 µg/mL
NCCCN1CCN(C(=O)N[C@@H](C(=O)N[C@H]2Cc3ccc(F)c(C(=O)O)c3OB2O)c2cc(F)c(O)c(O)c2Cl)C(=O)C1=O (single isomer, unassigned) [Example 180] | < 30 µM | D (D represents a potency <10 μM) | 16 to 32 µg/mL (≈ 25 to 50 µM) | 4 to 8 µg/mL (≈ 6.25 to 12.5 µM) | > 64 µg/mL | 16 to 32 µg/mL (≈ 25 to 50 µM) | > 64 µg/mL | > 64 µg/mL | > 64 µg/mL | > 64 µg/mL
NS(=O)(=O)c1cccc(C(NC(=O)N2CCN(CCF)C(=O)C2=O)C(=O)N[C@H]2Cc3cccc(C(=O)O)c3OB2O)c1 (stereo partly drawn) [Example 100, (3R)-3-(2-(4-(2-fluoroethyl)-2,3-dioxopiperazine-1-carboxamido)-2-(3-sulfamoylphenyl)acetamido)-2-hydroxy-3,4-dihydro-2H-benzo[e][1,2]oxaborinine-8-carboxylic acid] | 30 to 500 µM | D (D represents a potency <10 μM) | 16 to 32 µg/mL (≈ 26.4 to 52.9 µM) | 0.25 to 0.5 µg/mL (≈ 0.413 to 0.826 µM) | 16 to 32 µg/mL (≈ 26.4 to 52.9 µM) | 1 to 2 µg/mL (≈ 1.65 to 3.3 µM) | 16 to 32 µg/mL (≈ 26.4 to 52.9 µM) | > 64 µg/mL | 16 to 32 µg/mL (≈ 26.4 to 52.9 µM) | 16 to 32 µg/mL (≈ 26.4 to 52.9 µM)
CCN1CCN(C(=O)NC(C(=O)N[C@H]2Cc3cccc(C(=O)O)c3OB2O)c2cc(Cl)c(O)cc2F)C(=O)C1=O (stereo partly drawn) [Example 101, (3R)-3-(2-(5-chloro-2-fluoro-4-hydroxyphenyl)-2-(4-ethyl-2,3-dioxopiperazine-1-carboxamido)acetamido)-2-hydroxy-3,4-dihydro-2H-benzo[e][1,2]oxaborinine-8-carboxylic acid] | < 30 µM | D (D represents a potency <10 μM) | 4 to 8 µg/mL (≈ 6.94 to 13.9 µM) | 0.25 to 0.5 µg/mL (≈ 0.433 to 0.867 µM) | 16 to 32 µg/mL (≈ 27.7 to 55.5 µM) | 1 to 2 µg/mL (≈ 1.73 to 3.47 µM) | 16 to 32 µg/mL (≈ 27.7 to 55.5 µM) | 16 to 32 µg/mL (≈ 27.7 to 55.5 µM) | 16 to 32 µg/mL (≈ 27.7 to 55.5 µM) | 16 to 32 µg/mL (≈ 27.7 to 55.5 µM)
C[C@@H](O)[C@@H](NC(=O)N1CCN(CCNC(=O)c2c(F)cc(O)c(O)c2Cl)C(=O)C1=O)C(=O)N[C@H]1Cc2ccc(F)c(C(=O)O)c2OB1O [Example 102, (R)-3-((2R,3R)-2-(4-(2-(2-chloro-6-fluoro-3,4-dihydroxybenzamido)ethyl)-2,3-dioxopiperazine-1-carboxamido)-3-hydroxybutanamido)-7-fluoro-2-hydroxy-3,4-dihydro-2H-benzo[e][1,2]oxaborinine-8-carboxylic acid] | 30 to 500 µM | D (D represents a potency <10 μM) | > 64 µg/mL | 16 to 32 µg/mL (≈ 22.9 to 45.9 µM) | > 64 µg/mL | 16 to 32 µg/mL (≈ 22.9 to 45.9 µM) | > 64 µg/mL | > 64 µg/mL | > 64 µg/mL | > 64 µg/mL
CCN1CCN(C(=O)NC(C(=O)N[C@H]2Cc3cccc(C(=O)O)c3OB2O)c2cc(F)c(O)cc2Cl)C(=O)C1=O (stereo partly drawn) [Example 103, (3R)-3-(2-(2-chloro-5-fluoro-4-hydroxyphenyl)-2-(4-ethyl-2,3-dioxopiperazine-1-carboxamido)acetamido)-2-hydroxy-3,4-dihydro-2H-benzo[e][1,2]oxaborinine-8-carboxylic acid] | < 30 µM | D (D represents a potency <10 μM) | 16 to 32 µg/mL (≈ 27.7 to 55.5 µM) | 0.25 to 0.5 µg/mL (≈ 0.433 to 0.867 µM) | 16 to 32 µg/mL (≈ 27.7 to 55.5 µM) | 1 to 2 µg/mL (≈ 1.73 to 3.47 µM) | 16 to 32 µg/mL (≈ 27.7 to 55.5 µM) | > 64 µg/mL | 16 to 32 µg/mL (≈ 27.7 to 55.5 µM) | 16 to 32 µg/mL (≈ 27.7 to 55.5 µM)
CCN1CCN(C(=O)NC(C(=O)N[C@H]2Cc3cccc(C(=O)O)c3OB2O)c2cc(F)c(O)cc2F)C(=O)C1=O (stereo partly drawn) [Example 104, (3R)-3-(2-(2,5-difluoro-4-hydroxyphenyl)-2-(4-ethyl-2,3-dioxopiperazine-1-carboxamido)acetamido)-2-hydroxy-3,4-dihydro-2H-benzo[e][1,2]oxaborinine-8-carboxylic acid] | < 30 µM | D (D represents a potency <10 μM) | 4 to 8 µg/mL (≈ 7.14 to 14.3 µM) | 0.25 to 0.5 µg/mL (≈ 0.446 to 0.892 µM) | 16 to 32 µg/mL (≈ 28.6 to 57.1 µM) | 1 to 2 µg/mL (≈ 1.78 to 3.57 µM) | 16 to 32 µg/mL (≈ 28.6 to 57.1 µM) | 16 to 32 µg/mL (≈ 28.6 to 57.1 µM) | 4 to 8 µg/mL (≈ 7.14 to 14.3 µM) | 4 to 8 µg/mL (≈ 7.14 to 14.3 µM)
CCN1CCN(C(=O)NC(C(=O)N[C@H]2Cc3cccc(C(=O)O)c3OB2O)c2c(F)cc(O)cc2F)C(=O)C1=O (stereo partly drawn) [Example 105, (3R)-3-(2-(2,6-difluoro-4-hydroxyphenyl)-2-(4-ethyl-2,3-dioxopiperazine-1-carboxamido)acetamido)-2-hydroxy-3,4-dihydro-2H-benzo[e][1,2]oxaborinine-8-carboxylic acid] | < 30 µM | D (D represents a potency <10 μM) | 4 to 8 µg/mL (≈ 7.14 to 14.3 µM) | < 0.125 µg/mL | 16 to 32 µg/mL (≈ 28.6 to 57.1 µM) | 0.25 to 0.5 µg/mL (≈ 0.446 to 0.892 µM) | 16 to 32 µg/mL (≈ 28.6 to 57.1 µM) | 16 to 32 µg/mL (≈ 28.6 to 57.1 µM) | 4 to 8 µg/mL (≈ 7.14 to 14.3 µM) | 4 to 8 µg/mL (≈ 7.14 to 14.3 µM)
CCN1CCN(C(=O)NC(C(=O)N[C@H]2Cc3cccc(C(=O)O)c3OB2O)c2c(F)c(O)cc(O)c2F)C(=O)C1=O (stereo partly drawn) [Example 106, (3R)-3-(2-(2,6-difluoro-3,5-dihydroxyphenyl)-2-(4-ethyl-2,3-dioxopiperazine-1-carboxamido)acetamido)-2-hydroxy-3,4-dihydro-2H-benzo[e][1,2]oxaborinine-8-carboxylic acid] | 30 to 500 µM | D (D represents a potency <10 μM) | > 64 µg/mL | 16 to 32 µg/mL (≈ 27.8 to 55.5 µM) | > 64 µg/mL | 16 to 32 µg/mL (≈ 27.8 to 55.5 µM) | > 64 µg/mL | > 64 µg/mL | > 64 µg/mL | > 64 µg/mL
CCN1CCN(C(=O)NC(C(=O)N[C@H]2Cc3cccc(C(=O)O)c3OB2O)c2cccc(CNS(N)(=O)=O)c2)C(=O)C1=O (stereo partly drawn) [Example 107, (3R)-3-(2-(4-ethyl-2,3-dioxopiperazine-1-carboxamido)-2-(3-((sulfamoylamino)methyl)phenyl)acetamido)-2-hydroxy-3,4-dihydro-2H-benzo[e][1,2]oxaborinine-8-carboxylic acid] | 30 to 500 µM | D (D represents a potency <10 μM) | > 64 µg/mL | 1 to 2 µg/mL (≈ 1.62 to 3.24 µM) | > 64 µg/mL | 16 to 32 µg/mL (≈ 26 to 51.9 µM) | > 64 µg/mL | > 64 µg/mL | > 64 µg/mL | > 64 µg/mL
CCN1CCN(C(=O)NC(C(=O)N[C@H]2Cc3cccc(C(=O)O)c3OB2O)c2cccc(CN)c2)C(=O)C1=O (stereo partly drawn) [Example 108, (3R)-3-(2-(3-(aminomethyl)phenyl)-2-(4-ethyl-2,3-dioxopiperazine-1-carboxamido)acetamido)-2-hydroxy-3,4-dihydro-2H-benzo[e][1,2]oxaborinine-8-carboxylic acid] | 30 to 500 µM | B (B represents a potency between 30 μM and 500 μM inclusive) | 16 to 32 µg/mL (≈ 29.8 to 59.6 µM) | 1 to 2 µg/mL (≈ 1.86 to 3.72 µM) | > 64 µg/mL | 4 to 8 µg/mL (≈ 7.44 to 14.9 µM) | > 64 µg/mL | > 64 µg/mL | > 64 µg/mL | > 64 µg/mL
NCCN1CCN(C(=O)NC(C(=O)N[C@H]2Cc3cccc(C(=O)O)c3OB2O)c2cc(F)c(O)cc2Cl)C(=O)C1=O (stereo partly drawn) [Example 109, (3R)-3-(2-(4-(2-aminoethyl)-2,3-dioxopiperazine-1-carboxamido)-2-(2-chloro-5-fluoro-4-hydroxyphenyl)acetamido)-2-hydroxy-3,4-dihydro-2H-benzo[e][1,2]oxaborinine-8-carboxylic acid] | < 30 µM | D (D represents a potency <10 μM) | > 64 µg/mL | 4 to 8 µg/mL (≈ 6.76 to 13.5 µM) | > 64 µg/mL | > 64 µg/mL | > 64 µg/mL | > 64 µg/mL | > 64 µg/mL | > 64 µg/mL
